We go through four compounds from US20150051212A1, “Compositions And Methods For Inhibiting Drusen” (Regenerative Research Foundation, priority 2012, published 2015).

Series [1] has as its system drusen-associated protein transcripts. The experiment in a line: Reduced drusen expression: qPCR of drusen-associated protein transcripts in stressed RPE. Conditions: FIG. 4. In kind it is cell-based, human. The method, then: RNA is isolated from the RPE cells at the end of the 24 hour rest period, according to the protocol in the Qiagen RNeasy Micro/Mini Kits. Once isolated, the RNA is converted into cDNA using a high-capacity RNA to cDNA conversion kit (Applied Biosystems). The resulting cDNA is then used in a qPCR assay, to quantitate expression of various drusen-associated genes, including genes encoding: αA-crystallin, αB-crystallin, βB1-crystallin, βB2-crystallin, βs-crystallin, αA4-crystallin, APP, APOE, APOJ, BACE-1, PS1, VEGF, VEGF R1, VEGF R2, PEDF, CC9, serum amyloid P, TIMP3, vitronectin, and H2AE. The expression level of one or more housekeeping genes, such as ribosomal S18 and GAPDH, is also quantitated. Forward and reverse PCR primers having the nucleotide sequences shown in Table 2, below, may be used with a SYBR green reporter from Applied Biosystems.
Background: Quantitative PCR measures a nucleic acid by following its amplification.

The conditions of series [2]: O'Hare et al. 2005 Cancer Cell; cited from earlier work.
Series [3] deals with RPESC-derived RPE cells. The experiment in a line: Restored viability: LDH cytotoxicity assay in stressed RPESC-derived RPE.
For series [4], the system named is RPESC-derived RPE cells. As to the kind of experiment: Restored resistance: transepithelial resistance of RPESC-derived RPE after oxidative stress. In kind it is cell-based, human. To be noted: oxidative stress by TBHP; FIG. 3. The source says:
The ability of a test substance to restore transepithelial resistance may also be determined in the RPE cell-based assay. RPE cells are a tight junctioned epithelia and compromised epithelial integrity is a hallmark of RPE-associated diseases, such as, e.g., dry AMD.
Restored resistance. Healthy RPE form tight functioned epithelia layers with high electrical resistance. Compromising the integrity of these layers decreases the resistance and is indicative of a diseased state, such as dry or other forms of AMD.
Preferably, each well of primary human RPE cells has a resistance greater than 200 Ω·cm^2 before beginning the experiment. Resistance of RPE treated with a test compound is measured again, after oxidative stress, and compared to the resistance in untreated RPE subjected to the same oxidative stress procedure.

Take `COc1cc(Nc2c(C#N)cnc3cc(OCCCN4CCN(C)CC4)c(OC)cc23)c(Cl)cc1Cl` [Bosutinib]: in series [1], the “effect on TBHP-induced up-regulation of drusen-associated protein transcripts” value is on record as “attenuates TBHP-induced up-regulation of drusen-associated protein transcripts”.
Turning to `Cc1cn(-c2cc(NC(=O)c3ccc(C)c(Nc4nccc(-c5cccnc5)n4)c3)cc(C(F)(F)F)c2)cn1` [AMN107], in series [2], the “potency relative to imatinib mesylate” value is 20 fold.
For the compound Ponatinib, the “reduction in cell death compared to the cell lysis control” value with RPESC-derived RPE cells [3] (500 nM) is on record as “about 80%”. Besides, in the series on RPESC-derived RPE cells [3] (1 μM, FIG. 2), the effect on cytotoxicity result is “no effect on cytotoxicity”.
For `Cc1ccc(NC(=O)c2ccc(CN3CCN(C)CC3)cc2)cc1Nc1nccc(-c2cccnc2)n1` [Gleevec, 4-[(4-methylpiperazin-1-yl)methyl]-N-(4-methyl-3-{[4-(pyridin-3-yl)pyrimidin-2-yl]amino}phenyl)benzamide], the “effect on decrease in transepithelial resistance after oxidative stress” value with RPESC-derived RPE cells [4] is on record as “attenuate the decrease in transepithelial resistance”. Besides, the “effect on TBHP-induced up-regulation of drusen-associated protein transcripts” value in series [1] is on record as “attenuates TBHP-induced up-regulation of drusen-associated protein transcripts”. In the series on RPESC-derived RPE cells [3] (1 µM), the “cells viability restored compared to untreated controls” value is 100%. In the series on RPESC-derived RPE cells [3] (1 μM, 100% cell death in untreated controls), the “cell death in treated cells” value was 0%.
